Assay: Activity against thromboxane A2 receptor evaluated by aggregation of human platelets

| Compound | EC50 |
| --- | --- |
| CCCCCC(O)/C=C/[C@@H]1[C@@H](C/C=C\CCCC(N)=O)[C@@H]2C[C@H]1OC(=O)O2 (stereo partly drawn) [(Z)-7-[(1R,5S,6R,7R)-7-((E)-3-Hydroxy-oct-1-enyl)-3-oxo-2,4-dioxa-bicyclo[3.2.1]oct-6-yl]-hept-5-enoic acid amide] | 3110 nM |
| CCCCCC(O)/C=C/[C@@H]1[C@@H](C/C=C\CCCC(=O)O)[C@@H]2C[C@H]1OC(=O)O2 (stereo partly drawn) [(Z)-7-[(1R,5S,6R,7R)-7-((E)-3-Hydroxy-oct-1-enyl)-3-oxo-2,4-dioxa-bicyclo[3.2.1]oct-6-yl]-hept-5-enoic acid] | 24 nM |
